Results reported in BigSolDB 2.1.

NC(=O)C[C@H](NC(=O)OCc1ccccc1)C(=O)O
solubility (mole fraction)
Conditions | 283.15 K | 288.15 K | 293.15 K | 298.15 K | 303.15 K | 308.15 K | 313.15 K | 318.15 K | 323.15 K
in 1,4-dioxane | – | 0.00212 | 0.00241 | 0.00271 | 0.00317 | 0.00358 | 0.00419 | 0.0049 | 0.0057
in 2-butanone | 0.000329 | 0.000433 | 0.000544 | 0.000652 | 0.000745 | 0.00086 | 0.001 | 0.00112 | 0.00128
in acetone | 0.000747 | 0.000777 | 0.000832 | 0.000971 | 0.00112 | 0.00136 | 0.00161 | 0.00194 | 0.00262
in acetonitrile | 7.48e-05 | 0.000149 | 0.000221 | 0.000305 | 0.000395 | 0.000498 | 0.000599 | 0.00069 | 0.000775
in ethanol | 0.000263 | 0.000463 | 0.000753 | 0.00114 | 0.00161 | 0.00213 | 0.00265 | 0.00311 | 0.00347
in isobutanol | 4.91e-05 | 6.83e-05 | 9.5e-05 | 0.000157 | 0.000269 | 0.000403 | 0.000581 | 0.000831 | 0.00107
in isopropanol | 8.58e-05 | 0.000238 | 0.000431 | 0.000625 | 0.000834 | 0.00105 | 0.00127 | 0.00153 | 0.00177
in methanol | 0.00174 | 0.00188 | 0.00233 | 0.00274 | 0.00344 | 0.00413 | 0.00524 | 0.00647 | 0.00801
in n-butanol | 0.00023 | 0.000293 | 0.000361 | 0.000476 | 0.000644 | 0.000846 | 0.0011 | 0.00135 | 0.00171
in n-pentanol | 0.000182 | 0.000221 | 0.00027 | 0.000325 | 0.000415 | 0.000535 | 0.000652 | 0.000829 | 0.00104
in n-propanol | 0.000285 | 0.000339 | 0.000439 | 0.000576 | 0.000737 | 0.000887 | 0.00116 | 0.00142 | 0.00175
in water | 2.14e-05 | 2.75e-05 | 4.02e-05 | 5.55e-05 | 7.33e-05 | 9.44e-05 | 0.000121 | 0.000152 | 0.000198
